Earlier results in patent US20250352504A1, “LEVOCARNITINE AND TRIMETAZIDINE BILAYER TABLET AND PREPARATION METHOD THEREOF” (Changzhou High-tech Industrial Development Zone 3D …, priority 2024, published 2025).
Structures can show the parent of a compound that is named as a salt. Where two headings read alike, the source gives them in different places.

Tests used:
[1] = crystalline powder

| SMILES | solubility (acetone) | solubility (ethanol) | solubility (ether) | solubility (formic acid) | solubility (water) | hygroscopicity [1] | solubility (0.1 mol/L hydrochloric acid solution) | solubility (0.1 mol/L sodium hydroxide solution) | solubility (acetic acid) | solubility (methanol) |
| --- | --- | --- | --- | --- | --- | --- | --- | --- | --- | --- |
| C[N+](C)(C)C[C@H](O)CC(=O)[O-] [Levocarnitine, (3R)-3-hydroxy-4-(trimethylammonio) butanoate] | almost insoluble | readily soluble | almost insoluble | easily soluble | readily soluble | strong hygroscopicity | – | – | – | – |
| COc1ccc(CN2CCNCC2)c(OC)c1OC [Trimetazidine dihydrochloride, 1-(2,3,4-Trimethoxybenzyl) piperazine dihydrochloride] | – | slightly soluble | almost insoluble | – | highly soluble | – | highly soluble | highly soluble | easily soluble | soluble |
